Laboratory results taken from patent US7807877B2, “Genetic sequences having methyltransferase activity and uses therefor” (International Flower Developments Pty. Ltd., priority 2002, dated 2010).
Several values for one entry are separate records, joined by “and”; a condition that tells them apart may be missing. Identical values can stand only once.

Legend:
[1] = Reconstruction experiments: anthocyanins added to petal juice of Medeo roses; assay type: physicochemical, Rosa hybrida
Procedure: The rose cultivar Medeo generally produces cream-colored to pale apricot flowers (RHSCC 158C to 159A). […] The estimated vacuolar pH of Medeo petals is around 4.6. The petal juice of Medeo roses was extracted by grinding one petal with 50 μL of water using a mortar and pestle. The petal juice was collected and mixed with 10-20 μL of 1-2 mg/g delphinidin 3-glucoside, delphinidin 3,5-diglucoside and malvidin 3,5-diglucoside. The colors observed were described according to the Royal Horticultural Society Color Charts (RHSCC) (The Royal Horticultural Society, London) (Table 8).

rose petals = assay: Incubation of excised rose petal segments with precursors or end products; assay type: cell-based, Rosa hybrida; details: around 16 hours; for Color at cut edge after incubation in DHM: around 23° C.; for Color at cut edge upon production of delphinidin: incubation in dihydromyricetin 1-2 mg/mL
Procedure: To determine whether rose petals contained the enzymes necessary for conversion of dihydromyricetin to delphinidin, precursor-feeding experiments with dihydromyricetin were initiated.
Petal segments of a selection of commercial cultivars of roses (Toplesse, Lambada, Medeo, Pamela, Sonia, Oceana, Mystique) were placed in solutions of 1-2 mg/mL dihydromyrectin or water only and incubated for around 16 hours in a growth room at a temperature of around 23° C. Pink/purple colors were observed near the cut edges of the petals (Table 6).
Petal segments of roses were placed in solutions of 1-2 mg/mL malvidin 3,5-diglucoside, 1-2 mg/mL dihydromyrectin or water only and incubated for around 16 hours in a growth room at a temperature of around 23° C. The production of colors in the purple range were observed near the cut edges of the petals upon incubation with dihydromyrectin or malvidin 3,5-diglucoside (Table 7).

Torenia FMT (TFMT) = assay: HPLC assay of methyltransferase activity, E. coli extract containing pCGP3090; assay type: biochemical, Torenia hybrida; details: for product of flavonoid methyltransferase activity with the substrate: Torenia FMT in pCGP3090, to a lesser degree petunidin; for % of anthocyanidin detected cya / % of anthocyanidin detected peo / % of anthocyanidin detected del / % of anthocyanidin detected mal / % of anthocyanidin detected pet: pCGP3090 (TFMT), percentage of total anthocyanidins
Procedure: (§1) The assay reactions were incubated at 30° C. for 30 minutes. Fifty microlitres of a chloroform mix (CHCl3:methanol/1% HCl, 2:1) was added and the mixture was then vortexed to stop the reactions. The phases were separated by centrifugation at 13,000 rpm for 5 minutes and 50 μL of the upper phase was transferred into a clean tube and the contents subsequently hydrolysed by the addition of 12.5 μL of 10M HCl. The tube was then placed in a boiling waterbath for 30 minutes and the contents subsequently desiccated under vacuum. The residue was resuspended in 2-3 μL of methanol/1% HCl and spotted onto a TLC plate alongside standard samples of petunidin, malvidin and delphinidin. The anthocyanidins were separated in a Forestal system (HOAc:water:HCl; 30:10:3) (Markham, Techniques of flavonoid identification, Academic Press, London, 1982) and the TLC was exposed to an autoradiographic film (Kodak) for 16 hours at −70° C.
(§2) Anthocyanidins in the reaction mixture were analysed by HPLC via gradient elution using gradient conditions of 50% B to 60% B over 10 minutes, then 60% B for 10 minutes and finally 60% B to 100% B over 5 minutes where solvent A consisted of TFA:H2O (5:995) and solvent B consisted of acetonitrile:TFA:H2O (500:5:495). An Asahi Pac ODP-50 cartridge column (250 mm×4.6 mm ID) was used for the reversed phase chromatographic separations. […].
(§3) The enzyme activities of the peptides encoded by Petunia and Torenia FMT cDNA clones in pCGP3086 and pCGP3090, respectively were further assessed using the substrates delphinidin 3-glucoside and delphinidin 3-rutinoside and delphinidin 3,5-diglucoside under assay conditions as previously described (Table 15, Example 9) except that the ^14C-labelled SAM was replaced with non radioactive SAM at 2 mg/mL and the substrates (delphinidin 3-glucoside and delphinidin 3-rutinoside and delphinidin 3,5-diglucoside) at 2 mg/mL.

Petunia FMT (E20) [2] = assay: HPLC assay of methyltransferase activity, E. coli extract containing pCGP3086; assay type: biochemical, Petunia hybrida; details: for product of flavonoid methyltransferase activity with the substrate: Petunia FMT (E20) in pCGP3086, to a lesser degree malvidin; for % of anthocyanidin detected peo / % of anthocyanidin detected cya / % of anthocyanidin detected del / % of anthocyanidin detected mal / % of anthocyanidin detected pet: pCGP3086 (PFMT), percentage of total anthocyanidins
Procedure: as §1, §2, §3

Petunia FMT (E20) [3] = assay: Methyltransferase assay (14C-SAM, TLC) of crude homogenate of E. coli containing pCGP3086; assay type: biochemical, Petunia hybrida; set-up: key to Petunidin (product on TLC) / Malvidin (product on TLC): yes = detection of product on TLC; no = no reaction observed as determined by absence of product
Procedure: 10 mLs of LB containing ampicillin at 100 μg/mL and kanamycin at 25 μg/mL. (LB/Amp100+Kan25) were inoculated with a single colony of pCGP3086 or pQE30 in M15 (pREP4) cells. […] IPTG was then added to a final concentration of 1 mM and the culture was further incubated at 30° C. with shaking for 8 hours. The cells were pelleted by centrifugation at 3500 rpm for 10 minutes at 4° C. The pellet was resuspended in 1 mL of 0.1 M NaPi, pH 7.5, 4 mM MgCl2. […] The mixture was then sonicated for two bursts of 10 seconds at output 2-3 and then incubated on ice for 30 minutes. The cell debris was pelleted by centrifugation at 14,000 rpm for 20 minutes at 4° C. The supernatant was passed through a NAP-10 column (Pharmacia) and 1.5 mL of the sample collected in 0.1 M NaPi, pH 7.5, 4 mM MgCl2. […] (1983), supra. Methyltransferase assays were set up according to Table 10 in a total reaction volume of 50 μL. […] The assay reactions were incubated at 30° C. for 30 minutes. Fifty microlitres of a chloroform mix (CHCl3:methanol/1% HCl, 2:1) was added and the mixture was then vortexed to stop the reactions. […] The tube was then placed in a boiling waterbath for 30 minutes and the contents subsequently desiccated under vacuum.

[4] = rose cultivar Lambada (orange petal), 1-2 mg/mL
[5] = rose cultivar Toplesse (pink petal), 1-2 mg/mL
[6] = duplicate a/b, listed as D3, 5G
[7] = pCGP3090, substrate 2 mg/mL, SAM 2 mg/mL, duplicate a/b
[8] = pCGP3090, substrate 2 mg/mL, SAM 2 mg/mL, duplicate a/b, listed as D3, 5G
[9] = pCGP3086, substrate 2 mg/mL, SAM 2 mg/mL, duplicate a/b
[10] = pCGP3086 crude homogenate + 14C-SAM (Table 16, positive control)
[11] = pCGP3086 crude homogenate + 14C-SAM, 30° C., 30 minutes (Table 11)

## COc1cc(-c2[o+]c3cc(O)cc(O[C@@H]4O[C@H](CO)[C@@H](O)[C@H](O)[C@H]4O)c3cc2O[C@@H]2O[C@H](CO)[C@@H](O)[C@H](O)[C@H]2O)cc(OC)c1O [M35G, malvidin 3,5-diglucoside]
[1]; pH 4.6
  COLOR: violet-blue
[1]; pH 4.9
  COLOR: violet-blue
  RHSCC#: 90A
Rose petals; [4]
  Color at cut edge after incubation with malvidin: violet/purple
Rose petals; [5]
  Color at cut edge after incubation with malvidin: violet/purple

## OC[C@H]1O[C@@H](Oc2cc3c(O[C@@H]4O[C@H](CO)[C@@H](O)[C@H](O)[C@H]4O)cc(O)cc3[o+]c2-c2cc(O)c(O)c(O)c2)[C@H](O)[C@@H](O)[C@@H]1O [D35G, delphinidin 3,5-diglucoside]
Torenia FMT (TFMT)
  product of flavonoid methyltransferase activity with the substrate: predominantly malvidin
Torenia FMT (TFMT); pCGP3090
  Predominant FMT Activity: 3′5′FMT
Torenia FMT (TFMT); duplicate a/b
  % of anthocyanidin detected cya: 0.0%
  % of anthocyanidin detected peo: 0.0%
Torenia FMT (TFMT); [6]
  % of anthocyanidin detected del: 22.9% and 28.9%
  % of anthocyanidin detected mal: 70.0% and 66.9%
  % of anthocyanidin detected pet: 7.1% and 4.3%
Torenia FMT (TFMT); [7]
  Anthocyanidins (mg/g) Cya: 0 mg/g
  Anthocyanidins (mg/g) Peo: 0 mg/g
Torenia FMT (TFMT); [8]
  Anthocyanidins (mg/g) Mal: 7.3 mg/g and 12.4 mg/g
  Anthocyanidins (mg/g) Pet: 0.7 mg/g and 0.8 mg/g
[1]; pH 4.6
  COLOR: violet
  RHSCC#: 88A
[1]; pH 4.9
  COLOR: violet
  RHSCC#: 88A
Petunia FMT (E20) [2]
  product of flavonoid methyltransferase activity with the substrate: predominantly petunidin
Petunia FMT (E20) [2]; pCGP3086
  Predominant FMT Activity: 3′FMT
Petunia FMT (E20) [2]; duplicate a/b
  % of anthocyanidin detected peo: 0.0%
Petunia FMT (E20) [2]; [6]
  % of anthocyanidin detected cya: 0.0% and 2.2%
  % of anthocyanidin detected del: 45.6% and 55.9%
  % of anthocyanidin detected mal: 11.0% and 6.0%
  % of anthocyanidin detected pet: 43.4% and 35.9%
Petunia FMT (E20) [2]; [9]
  Anthocyanidins (mg/g) Peo: 0 mg/g
Petunia FMT (E20) [2]; pCGP3086, substrate 2 mg/mL, SAM 2 mg/mL, duplicate a/b, listed as D3, 5G
  Anthocyanidins (mg/g) Mal: 0.7 mg/g and 1.1 mg/g

## C[C@@H]1O[C@@H](OC[C@H]2O[C@@H](Oc3cc4c(O)cc(O)cc4[o+]c3-c3cc(O)c(O)c(O)c3)[C@H](O)[C@@H](O)[C@@H]2O)[C@H](O)[C@H](O)[C@H]1O [D3R, delphinidin 3-rutinoside]
Torenia FMT (TFMT)
  product of flavonoid methyltransferase activity with the substrate: predominantly malvidin
Torenia FMT (TFMT); pCGP3090
  Predominant FMT Activity: 3′5′FMT
Torenia FMT (TFMT); duplicate a/b
  % of anthocyanidin detected cya: 0.0%
  % of anthocyanidin detected del: 13.2% and 14.6%
  % of anthocyanidin detected mal: 80.9% and 79.1%
  % of anthocyanidin detected peo: 1.9%
  % of anthocyanidin detected pet: 4.0% and 4.3%
Torenia FMT (TFMT); [7]
  Anthocyanidins (mg/g) Cya: 0 mg/g
  Anthocyanidins (mg/g) Del: 2.5 mg/g and 2.8 mg/g
  Anthocyanidins (mg/g) Mal: 15.6 mg/g and 15.1 mg/g
  Anthocyanidins (mg/g) Peo: 0.4 mg/g
  Anthocyanidins (mg/g) Pet: 0.8 mg/g
Petunia FMT (E20) [3]; crude homogenates from pCGP3086 cells, 14C-SAM
  Petunidin and malvidin, the methylated derivatives of delphinidin, in assay reactions: detected
Petunia FMT (E20) [3]; [10]
  Malvidin (product on TLC): yes
  Petunidin (product on TLC): yes
Petunia FMT (E20) [3]; [11]
  Malvidin (product on TLC): yes
  Petunidin (product on TLC): yes
Petunia FMT (E20) [2]
  product of flavonoid methyltransferase activity with the substrate: predominantly petunidin
Petunia FMT (E20) [2]; pCGP3086
  Predominant FMT Activity: 3′FMT
Petunia FMT (E20) [2]; duplicate a/b
  % of anthocyanidin detected cya: 2.5%
  % of anthocyanidin detected del: 21.2% and 21.7%
  % of anthocyanidin detected mal: 16.6% and 17.4%
  % of anthocyanidin detected peo: 1.2% and 1.1%
  % of anthocyanidin detected pet: 58.5% and 57.4%
Petunia FMT (E20) [2]; [9]
  Anthocyanidins (mg/g) Cya: 0.4 mg/g and 0.5 mg/g
  Anthocyanidins (mg/g) Del: 3.7 mg/g and 4.5 mg/g
  Anthocyanidins (mg/g) Mal: 2.9 mg/g and 3.6 mg/g
  Anthocyanidins (mg/g) Peo: 0.2 mg/g
  Anthocyanidins (mg/g) Pet: 10.2 mg/g and 11.9 mg/g

## O=C1c2c(O)cc(O)cc2O[C@H](c2cc(O)c(O)c(O)c2)[C@H]1O [DHM, dihydromyricetin]
Rose petals; petal segments of commercial rose cultivars, 1-2 mg/mL
  TLC analysis of the anthocyanidins in the pink/purple segments: production of delphinidin
Rose petals; [4]
  Color at cut edge after incubation in DHM: pink/purple
Rose petals; rose cultivar Lambada (orange petal)
  Color at cut edge upon production of delphinidin: pink/purple
Rose petals; rose cultivar Medeo (pale apricot petal), 1-2 mg/mL
  Color at cut edge after incubation in DHM: pink/purple
Rose petals; rose cultivar Mystique (apricot petal), 1-2 mg/mL
  Color at cut edge after incubation in DHM: pink/purple
Rose petals; rose cultivar Oceana (cream petal), 1-2 mg/mL
  Color at cut edge after incubation in DHM: pink/purple
Rose petals; rose cultivar Pamela (white/pale pink petal), 1-2 mg/mL
  Color at cut edge after incubation in DHM: pink/purple
Rose petals; rose cultivar Sonia (apricot/pink petal), 1-2 mg/mL
  Color at cut edge after incubation in DHM: pink/purple
Rose petals; [5]
  Color at cut edge after incubation in DHM: pink/purple
Rose petals; rose cultivar Toplesse (pink petal)
  Color at cut edge upon production of delphinidin: pink/purple
